Laboratory results published in US20100234243A1, “PTU COMPOUNDS FOR PROMOTING THE IN VITRO CULTURE OF (HIGHLY PIGMENTED) MELANOCYTES” (L'OREAL, priority 2004, published 2010).
pIC50: −log10 of the molar value.

What was measured:
Assay type in all cases: cell-based, human
[1] = system: melanocytes of phototype VI (African); experiment: Determination of the non-cytotoxic concentration of PTU (cell adherence, observed under a microscope); conditions: for adherent cells (viability): primary culture without PTU 80%
Procedure: a) Preparation of a Primary Culture of […] Melanocytes: The melanocytes were obtained from a foreskin of a child according to the following protocol: the skin is cut into fragments of 6 mm and incubated at +4° C. overnight in the presence of 0.25% trypsin. The epidermis is then separated from the dermis in foetal calf serum. The pieces of dermis are scraped in order to recover the basal cells and the melanocytes. The epidermal fragments are then vortexed and the cells are then centrifuged at […] for 5 min. These cells (mixture of melanocytes and keratinocytes) are counted and seeded at a density of 8 to 15×10^6 cells per 75 cm^2 flask, in 18 to 20 ml of M2 medium (Promocell). The melanocytes are then purified according to the following protocol: the culture medium is changed 3 times a week and when the cells are confluent, the flasks are emptied and rinsed once with PBS-Ca^2+Mg^2+. 3 ml of trypsin-EDTA are then added per flask and the flasks are incubated at ambient temperature for 3-4 min: the melanocytes detach whereas the keratinocytes remain attached to the flask. An equivalent volume of M2 medium is added and the detached cells are counted and seeded at a density of 10^6 cells per 75 cm^2 flask, in 18 to 20 ml of M2 medium (Promocell). A primary culture of […] human melanocytes is thus obtained. The trypsinization is repeated when the melanocytes reach confluency (passage 1 et seq.). The melanocytes in the primary culture are 80% viable, i.e., 80% of the melanocytes adhere to the flask. b) Determination of the Non-Cytotoxic Concentration of PTU: Reversible Effect: Part of the primary culture of melanocytes is treated with PTU (Sigma) at the concentrations of 5 μM, 10 μM and 50 μM, at passage 2/3 or preferably from the first passage. The cytotoxicity of the effect of the PTU is evaluated by observing the cells under a microscope.

[2] = system: melanocytes of phototype VI (African); experiment: Pigmentation (luminance L*) and melanogenesis inhibition in melanocyte cultures
Procedure: The pigmentation of the melanocytes of phototype VI (African), treated with 10 μM PTU or not treated, is measured by the value L* (luminance) of the cultures given by the spectrocolorimeter (FIG. 1). […] Melanin synthesis is decreased during treatment and becomes normal again in the absence of treatment. The IC50 of PTU (i.e., the concentration of PTU for which 50% inhibition of melanogenesis is observed compared with the control on cultures of melanocytes of phototype VI (African), is evaluated from 50 μM to 100 μM.

[3] = system: melanocytes of phototype VI (African); experiment: Effect of PTU on proliferation of melanocytes (amount of cells obtained per passage)
[4] = system: melanocytes of phototype VI (African); experiment: Viability of melanocytes after freezing, thawing and re-culturing; conditions: PTU 10 μM before freezing; non-treated 5%
Procedure: They are then centrifuged and the pellet is resuspended in foetal calf serum+10% DMSO at a concentration of 10^6 cells/ml. The cells are frozen in cryotubes at −80° C. After 24 h, the tubes are transferred into liquid nitrogen at −196° C. For the thawing, the tubes are placed in a water bath at 37° C. and, after rapid thawing, 5 ml of M2 medium are added. The cells are centrifuged at 190 g for 5 min, the pellet is resuspended in M2 medium, and the cells are seeded into a flask and re-cultured under the conditions described in a).

[5] = system: melanocytes of phototype VI (African) in reconstructed epidermis; experiment: Functionality of PTU-multiplied melanocytes in reconstructed epidermis (DOPA reaction, Fontana-Masson staining); conditions: melanocytes multiplied beforehand with 5 μM or 10 μM PTU, treatment stopped
Procedure: The support is rinsed in the culture medium and then possibly coated with collagen type IV, fibronectin or laminin, for example. After contact at +4° C. overnight, the keratinocytes and the melanocytes of phototype VI (African) multiplied beforehand in the presence of 5 μM or 10 μM PTU, as described in Example 1, are then seeded onto said support. The culture can then be maintained immersed in a medium for keratinocytes in the presence of growth factor. After an incubation time of 3 to 5 days, the skin equivalent of phototype VI (African) undergoing formation is maintained at the air/liquid interface, for example by deposition onto a metal screen or removal of the culture medium present at the surface of an insert. The liquid then preferentially consists of the same nutritive medium as the previous one, but in which the growth factors have been reduced. The incubation then continues until a skin equivalent of phototype VI (African) is obtained. Thus, the incubation continues for a period of from 5 to 30 days, preferentially from 7 to 10 days. The reconstructed skin model of phototype VI (African) thus produced comprises two entities, the support, dermal equivalent, and the epidermal equivalent, which can be physically separated from one another. […] This enzyme is responsible for the oxidation of tyrosine to […] (DOPA) and then for the oxidation of DOPA to DOPA-quinone. […]

[6] = system: epidermis reconstructed from melanocytes of phototype VI (African); experiment: Depigmenting activity on reconstructed epidermis (luminance L* by colorimeter); conditions: 100 μM, topical, 3 applications for 5 days; FIG. 3
Procedure: The epidermis reconstructed from melanocytes of phototype VI (African), prepared under the conditions of Example 2, is used to screen the depigmenting activity of active agents.
The test products—arbutin at 100 μM and vitamin C phosphate at 280 μM—are applied topically to said reconstructed epidermis: 3 applications (3 μM/sample) for 5 days from the 5th day of immersion.
Vitamin C phosphate at 280 μM is also applied systemically, i.e., in the culture medium, throughout the duration of the epidermal reconstruction.
The control is the measurement of luminance of the reconstructed epidermis in the absence of test product.
On epidermis reconstructed on BPER (Episkin®), since the dermal support is translucent, it cannot be evaluated directly on the samples. The latter are therefore de-epidermalized and then digested with a solution of proteinase K. The lysates obtained are filtered on DEAE cellulose, which retains the melanin. The luminance is then measured on the filter.
The luminance L*, or lightness, of the sample is measured using a colorimeter. The darker a sample is, the weaker its luminance.

[7] = PTU 5 μM or 10 μM added at passage 2/3, non-treated cells multiply 2-fold
[8] = PTU 10 μM added at passage 4/5, non-treated control factor of 2

pIC50 ([2]; Homo sapiens, Melanocyte, cultures of melanocytes of phototype VI (African), read-out: IC50, concentration for 50% inhibition of melanogenesis compared with the control)	DOPA assay (tyrosinase DOPA-oxidase activity) of treated melanocytes [5]	SMILES	adherent cells (viability) ([1]; PTU 5 μM)	adherent cells (viability) ([1]; PTU 10 μM)	cytotoxicity on melanocytes from African individuals ([1]; PTU 50 μM, most of the cells detach)	amount of pigment in the melanocytes (luminance L*) ([2]; PTU 10 μM, effect reversible when treatment is stopped, FIG. 1)	amount of pigment excreted by the melanocytes into the medium ([2]; after PTU treatment)	multiplication of melanocytes ([3]; PTU 5 μM instead of 10 μM, treated from the first passage)	factor of stimulation of multiplication at passage 8 [3, 7]	factor of stimulation of multiplication at passage 9 [3, 7]	multiplication factor of treated cells at passage 8 [3, 8]	multiplication factor of treated cells at passage 9 [3, 8]	percentage viability during multiplication ([3]; PTU 10 μM, non-treated control 80%)	viable melanocytes after freezing, thawing and re-culturing [4]	integration of treated melanocytes into the reconstructed epidermis [5]	increase in luminance versus control [6]
4.00 to 4.30	reactive	S=C(Nc1ccccc1)Nc1nccs1 [PTU, 1-phenyl-3-(2-thiazolyl)-2-thiourea]	95%	95%	cytotoxic	decreases the amount of pigment in the melanocytes	reduced	results of the same order of magnitude	5	15	5	15	95%	80%	integrate into the reconstructed epidermis	
		OC[C@H]1O[C@@H](Oc2ccc(O)cc2)[C@H](O)[C@@H](O)[C@@H]1O [arbutin]														1.8 points of L*
